In US20180186742A1, “PICOLINAMIDES AS FUNGICIDES” (Dow AgroSciences LLC, priority 2017, published 2018):
Like-named read-outs stand apart in the source and are kept apart here.

Columns and labels:
Zymoseptoria tritici = assay: Leaf blotch of wheat (SEPTTR), disease control on wheat seedlings; assay type: in vivo; settings: for pest or weed control at 100 ppm: high volume application at 100 ppm; for pest or weed control at 121.5 g/ha: low volume application at 121.5 g/H
How it was run: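 Yuma wheat seedlings with the first leaf fully emerged were sprayed to run-off with compound in acetone plus nine volumes of water containing 110 ppm Triton X-100; track-spray tests used EC formulations with 0.1% Trycol 5941. Z. tritici inoculation came before or after treatment, followed by 100% RH dew periods and a 20 °C greenhouse. Percent control was calculated from severity versus untreated plants.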

Puccinia triticina = assay: Wheat brown rust (PUCCRT), disease control on wheat seedlings; assay type: in vivo; settings: for pest or weed control at 100 ppm: high volume application at 100 ppm; for pest or weed control at 121.5 g/ha: low volume application at 121.5 g/H
How it was run: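 Compounds in acetone, diluted with nine volumes of water containing 110 ppm Triton X-100, sprayed to run-off on first-leaf Yuma wheat seedlings; track-spray tests used EC formulations with 0.1% Trycol 5941. Puccinia triticina spores applied before or after treatment. Overnight dark dew room at 22° C, 100% humidity, then greenhouse at 24° C.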

[1] = 24 h, 1 Day Protectant, read-out: SEPTTR disease control, 1DP, HV activity
[2] = 72 h, 3 Day Curative, read-out: SEPTTR disease control, 3DC, HV activity
[3] = 24 h, 1 Day Protectant, read-out: PUCCRT disease control, 1DP, HV activity
[4] = 72 h, 3 Day Curative, read-out: PUCCRT disease control, 3DC, HV activity
[5] = 24 h, 1 Day Protectant, read-out: SEPTTR disease control, 1DP, LV activity
[6] = 24 h, 1 Day Protectant, read-out: PUCCRT disease control, 1DP, LV activity
[7] = 72 h, 3 Day Curative, read-out: PUCCRT disease control, 3DC, LV activity

Structure (SMILES)	pest or weed control at 100 ppm (Zymoseptoria tritici; [1]) [%]	pest or weed control at 100 ppm (Zymoseptoria tritici; [2]) [%]	pest or weed control at 100 ppm (Puccinia triticina; [3]) [%]	pest or weed control at 100 ppm (Puccinia triticina; [4]) [%]	also measured
COc1ccnc(C(=O)N[C@@H](C)C(=O)O[C@@H](C)[C@@H](c2ccc(F)cc2C)C(C)C)c1O [Compound 116]	< 0	< 80	> 80	< 0	
COc1ccnc(C(=O)N[C@@H](C)C(=O)O[C@@H](C)[C@H](c2cccc(F)c2C)C(C)C)c1O [Compound 322]	< 80	< 80	> 80	> 80	
COc1ccnc(C(=O)N[C@@H](C)C(=O)O[C@@H](C)[C@H](c2ccc(F)cc2C)C(C)C)c1O [Compound 124]	> 80	> 80	> 80	> 80	
COc1ccnc(C(=O)N[C@@H](C)C(=O)OC(C)C(c2ccc(F)cc2)C(C)C)c1OC(C)=O (stereo partly drawn) [Compound 169]					pest or weed control at 121.5 g/ha (Zymoseptoria tritici; [5]): < 80%; pest or weed control at 121.5 g/ha (Zymoseptoria tritici; 72 h, 3 Day Curative, read-out: SEPTTR disease control, 3DC, LV activity): > 80%; pest or weed control at 121.5 g/ha (Puccinia triticina; [6]): > 80%; pest or weed control at 121.5 g/ha (Puccinia triticina; [7]): > 80%
COc1cc(F)ccc1[C@@H](C1CCCC1)[C@H](C)OC(=O)[C@H](C)NC(=O)c1nccc(OC)c1O [Compound 140]	< 0	< 80	> 80	> 80	
COc1ccnc(C(=O)N[C@@H](C)C(=O)O[C@@H](C)[C@@H](c2ccc(Cl)cc2Cl)C(C)C)c1O [Compound 333]	< 80	< 80	> 80	< 80	
COc1ccnc(C(=S)N[C@@H](C)C(=O)O[C@@H](C)[C@@H](c2ccccc2)C2CCCC2)c1O [Compound 115]	< 80	< 0	< 0	< 0	
COc1ccnc(C(=O)N[C@@H](C)C(=O)O[C@@H](C)[C@H](c2cc(C)ccc2C)C(C)C)c1O [Compound 321]	< 80	< 80	> 80	> 80	
CCC(CC)[C@@H](c1ccc(F)cc1C)[C@H](C)OC(=O)[C@H](C)NC(=O)c1nccc(OC)c1O [Compound 125]	> 80	> 80	> 80	< 80	
COc1ccnc(C(=O)N[C@@H](C)C(=O)O[C@@H](C)[C@H](c2ccccc2C)C(C)C)c1O [Compound 327]	< 80	> 80	> 80	> 80	
COc1ccnc(C(=O)N[C@@H](C)C(=O)O[C@@H](C)[C@H](c2ccc(F)c(C)c2)C(C)C)c1OCOC(C)=O [Compound 256]					pest or weed control at 121.5 g/ha (Zymoseptoria tritici; [5]): > 80%; pest or weed control at 121.5 g/ha (Puccinia triticina; [6]): > 80%; pest or weed control at 121.5 g/ha (Puccinia triticina; [7]): > 80%
COc1ccnc(C(=O)N[C@@H](C)C(=O)O[C@@H](C)[C@H](c2c(F)cc(F)cc2F)C(C)C)c1OC(C)=O [Compound 388]					pest or weed control at 121.5 g/ha (Zymoseptoria tritici; 24 h, 1 Day Protectant, wheat leaf blotch, read-out: SEPTTR 1DP disease control, LV activity): > 80%; pest or weed control at 121.5 g/ha (Zymoseptoria tritici; 72 h, 3 Day Curative, wheat leaf blotch, read-out: SEPTTR 3DC disease control, LV activity): > 80%; pest or weed control at 121.5 g/ha (Puccinia triticina; 24 h, 1 Day Protectant, wheat brown rust, read-out: PUCCRT 1DP disease control, LV activity): > 80%; pest or weed control at 121.5 g/ha (Puccinia triticina; 72 h, 3 Day Curative, wheat brown rust, read-out: PUCCRT 3DC disease control, LV activity): > 80%
COc1ccnc(C(=O)N[C@@H](C)C(=O)O[C@@H](C)[C@H](c2ccc(C)cc2F)C(C)C)c1O [Compound 329]	< 80	< 80	> 80	> 80	
COCCC(=O)Oc1c(OC)ccnc1C(=O)N[C@@H](C)C(=O)O[C@@H](C)[C@H](c1ccc(C)cc1OC)C(C)C [Compound 249]					pest or weed control at 121.5 g/ha (Zymoseptoria tritici; [5]): < 80%; pest or weed control at 121.5 g/ha (Puccinia triticina; [6]): > 80%; pest or weed control at 121.5 g/ha (Puccinia triticina; [7]): > 80%
